From patent US11479561B2, “Tetrahydroisoquinoline derivatives” (Cytokinetics, Incorporated, priority 2016, dated 2022) come the findings set out here.

The test deals with rabbit skeletal myofibrils (approximately 90% fast fibers). The test is described as follows: Activation of fast skeletal myofibrils (PUMA coupled-enzyme ATPase assay). It counts as biochemical. Conditions: concentration at which the compound increased the enzymatic activity by 40%; calcium level pCa25. The method, then:
Preparation of fast skeletal myofibrils: Rabbit skeletal myofibrils were prepared based upon the method of Herrmann et al. (Biochem. 32(28):7255-7263(1993). Myofibrils were prepared from rabbit psoas muscle purchased from Pel-Freez Biologicals (Arkansas) within 2 days of ordering, stored on ice. Minced muscle was homogenized in 10 volumes of ice-cold “standard” buffer (50 mM Tris, pH 7.4, 0.1 M KOAc, 5 mM KCl, 2 mM dithiothreitol (DTT), 0.2 mM phenylmethylsulfonyl fluoride (PMSF), 10 μM leupeptin, 5 μM pepstatin, and 0.5 mM sodium azide) containing 5 mM ethylenediaminetetraacetic acid (EDTA) and 0.5% Triton X-100 using an Omni-Macro homogenizer. Myofibrils were recovered by low speed centrifugation (3000 rpm for 10 minutes) and washed 2 times in the Triton X-100 containing buffer to ensure removal of cellular membrane. Following the Triton washes, myofibrils were washed 3 times in “standard” buffer containing 2 mM magnesium acetate. A final wash in assay buffer (12 mM piperazine-1,4-bis(2-ethanesulfonic acid) (PIPES), pH 6.8, 60 mM KCl, 1 mM DTT) was performed and brought to 10% sucrose for flash freezing in liquid nitrogen and storage at −80° C.
Activation of Fast Skeletal Myofibrils: Fast fiber activators were identified by Measuring the enzymatic activity of muscle myofibril preparations using the proprietary PUMA (trademark) (see, e.g., U.S. Pat. Nos. 6,410,254, 6,743,599, 7,202,051, and 7,378,254) assay system. Myofibril preparations consisted of rabbit skeletal muscle (approximately 90% fast fibers) that had been mechanically homogenized and washed with a detergent (Triton X-100) to remove cellular membranes. This preparation retained all of the sarcomeric components in a native conformation and the enzymatic activity was still regulated by calcium. Compounds were tested using a myofibril suspension and a level of calcium sufficient to increase enzymatic activity of the myofibrils to 25% of their maximal rate (termed pCa25). Enzymatic activity was tracked via a pyruvate kinase and lactate dehydrogenase-coupled enzyme system. This assay regenerates myosin-produced ADP into ATP by oxidizing NADH, producing an absorbance change at 340 nm. The buffering system was 12 mM PIPES, 2 mM MgCl2, 1 mM DTT at pH 6.8 (PM12 buffer).

Each structure is given as a SMILES string.

Turning to `CC1(C)C(=O)NC2(COC2)c2ccc(F)cc21` [compound 157], the AC1.4 was determined as 2.566 µM.
The result for `CCC1(CC)C(=O)NC2(COC2)c2ncc(C#N)cc21` [compound 161] reads 1.987 µM; that for `CN(c1ccccc1)C1C(=O)NC(C)(C)c2ccc(Br)cc21.Cl` (stereo not shown) [compound 66], 2.502 µM; that for `CC1(C)C(=O)NC2(COC2)c2ccc(C(F)F)nc21` [compound 169], 1.730 µM.
Regarding `COC(=O)N1CCC2(CC1)C(=O)NC(C)(C)c1ccc(Cl)cc12` [compound 156], the AC1.4 is 5.881 µM.
Consider `CCC1(CC)C(=O)NC(C)(C)c2ccc(Cl)cc21` [compound 48], for which the AC1.4 was under 0.077 µM.
Next, `C[C@H](O)CC1(C)C(=O)NC2(COC2)c2ccc(Cl)cc21` (mixture of isomers) [167b, rac-(4R)-6-chloro-4-[(2S)-2-hydroxypropyl]-4-methyl-2H-spiro[isoquinoline-1,3′-oxetan]-3(4H)-one]: 0.869 µM; `C=CCC1(C)C(=O)NC(C)(C)c2ccc(Cl)nc21` (stereo not shown) [compound 76]: 0.223 µM; `CC1(C)NC(=O)C(CCF)(CCF)c2cc(Br)ccc21` [compound 140]: 0.199 µM.
As to `CC1(C)NC(=O)C(c2ccccc2)c2ccccc21` (stereo not shown) [compound 138], the AC1.4 was 7.955 µM.
Next, `CC1(C)NC(=O)C(C)(Cn2cccn2)c2nc(Cl)ccc21` (stereo not shown) [compound 70]: 0.522 µM; `CCC1(CC(=O)O)C(=O)NC(C)(C)c2ccc(Br)cc21` (stereo not shown) [compound 91]: 20.240 µM; `CCC1(CCO)C(=O)NC2(COC2)c2ccc(C)nc21` (stereo not shown) [compound 102]: 8.474 µM.
The result for `C=CCC1(C)C(=O)NC(C)(C)c2ccc(C#N)nc21` (stereo not shown) [compound 60] reads 0.252 µM; that for `CC1(C)NC(=O)C2(CCOCC2)c2cc(Br)ccc21` [compound 44], 5.982 µM; that for `CCC1(Cc2ccccc2Cl)C(=O)NC(C)(C)c2ccc(Br)cc21` (stereo not shown) [compound 79], under 0.077 µM.
Next, `CCC1(CC)C(=O)NC(C)(C)c2c(OC)cc(OC)cc21` [compound 50]: 0.763 µM; `CC1(C)NC(=O)C(C)(Cn2cccn2)c2nc(C#N)ccc21` (stereo not shown) [134b]: 4.986 µM.
Consider `C#CCC1(C)C(=O)NC(C)(C)c2ccc(C#N)nc21` (stereo not shown) [compound 111], for which the AC1.4 was found to be 0.321 µM.
The result for `CC1(C)NC(=O)C(C)(C)c2nc(C#N)cnc21` [compound 153] reads 1.590 µM; that for `CCC1(CCO)C(=O)NC(C)(C)c2ccc(Br)cc21` (stereo not shown) [compound 115], 0.474 µM.
The result for `CCC1(CC(F)F)C(=O)NC2(COC2)c2ccc(OC)nc21` (stereo not shown) [compound 145] reads 0.581 µM; that for `CCC1(CC)C(=O)NC(C)(C)c2cc(Cl)c(C#N)cc21` [compound 34, 7-chloro-4,4-diethyl-1,1-dimethyl-3-oxo-1,2,3,4-tetrahydroisoquinoline-6-carbonitrile], 0.229 µM; that for `Cc1ccc2c(n1)C(C)(CC(F)F)C(=O)NC21COC1` (stereo not shown) [92b], 0.400 µM.
Next, `CC1(Cn2cccn2)C(=O)NC2(COC2)c2ccc(Cl)cc21` (stereo not shown) [compound 75]: 1.174 µM; `CCC1(CC)C(=O)NC(C)(C)c2ncc(Cl)nc21` [compound 69]: 0.485 µM.
In the case of `C[C@@H](O)CC1(C)C(=O)NC2(COC2)c2ccc(Cl)cc21` (mixture of isomers) [167a, rac-(4R)-6-chloro-4-[(2R)-2-hydroxypropyl]-4-methyl-2H-spiro[isoquinoline-1,3′-oxetan]-3(4H)-one], the AC1.4 came out at 3.293 µM.
The result for `CC1(C)C(=O)NC2(COC2)c2ccc(Cl)nc21` [compound 90] reads 2.555 µM.
The result for `CC1(C)NC(=O)C(C)(Cc2cn[nH]c2)c2nc(C#N)ccc21` (stereo not shown) [compound 110] reads 3.478 µM.
The result for `CC1(C)NC(=O)C(C)(CCO)c2cc(Cl)cnc21` (stereo not shown) [compound 159] reads 11.374 µM; that for `CCC1(Cc2ccc(Cl)cc2)C(=O)NC(C)(C)c2ccc(Br)cc21` (stereo not shown) [compound 82], 0.084 µM.
As to `CCC1(CC(=O)NCc2ccccc2)C(=O)NC(C)(C)c2ccc(Br)cc21` (stereo not shown) [compound 139], the AC1.4 came out at 30.805 µM.
The result for `CC1(C)C(=O)NC2(COC2)c2ccc(C#N)nc21` [compound 142] reads 2.377 µM; that for `CCC1(CC)C(=O)NC(C)(C)c2cc(C3CC3)c(C#N)cc21` [compound 98], 2.085 µM; that for `CCC1(CC)C(=O)NC2(COC2)c2ccc(Cl)cc21` [compound 43], 0.051 µM.
The result for `CCC1(CCOC)C(=O)NC2(COC2)c2ccc(C#N)nc21` (stereo not shown) [compound 112] reads 1.437 µM; that for `CCC1(CC)C(=O)NC(C)(C)c2cc(C)c(C#N)cc21` [compound 97], 0.332 µM.
Next, `Cc1ccc2c(n1)C(C)(CC(F)F)C(=O)NC21COC1` (stereo not shown) [compound 95]: 0.720 µM.
With `CCC1(CC)C(=O)NC2(COC2)c2ccc(COC(F)F)nc21` [compound 143, 2-[(difluoromethoxy)methyl]-8,8-diethyl-6H-spiro[1,6-naphthyridine-5,3′-oxetan]-7(8H)-one], the AC1.4 came to 2.830 µM.
Next, `CC(C)(O)CC1(C)C(=O)NC2(COC2)c2ccc(Cl)cc21` (stereo not shown) [compound 137, 6-chloro-4-(2-hydroxy-2-methylpropyl)-4-methyl-2H-spiro[isoquinoline-1,3′-oxetan]-3(4H)-one]: 2.365 µM; `CCC1(CC)C(=O)NC(C)(C)c2cc(Br)c(C#N)cc21` [compound 116]: 0.274 µM.
Regarding `CCC1(CC(F)F)C(=O)NC2(COC2)c2ccc(C(F)F)nc21` (stereo not shown) [compound 88], the AC1.4 was 0.203 µM.
The result for `CC1(C)NC(=O)C(C)(C)c2cc(C#N)cnc21` [compound 58] reads 5.040 µM; that for `CCC1C(=O)NC(C)(C)c2ccc(Br)cc21` (stereo not shown) [compound 53], 0.711 µM.
The result for `C=CCC1(C)NC(=O)C(CC)(CC)c2nc(Cl)ccc21` (stereo not shown) [compound 77] reads 7.898 µM; that for `CCC1(CC(F)F)C(=O)NC(C)(C)c2ccc(Br)cc21` (stereo not shown) [compound 83], under 0.077 µM.
The result for `CCN(CC)C1C(=O)NC(C)(C)c2ccc(Br)cc21.Cl` (stereo not shown) [compound 65] reads 1.052 µM; that for `CCC1(Cc2cccc(Cl)c2)C(=O)NC(C)(C)c2ccc(Br)cc21` (stereo not shown) [compound 80], 0.112 µM.
As to `CCC1(CCOC)C(=O)NC2(COC2)c2ccc(C)nc21` (stereo not shown) [compound 96], the AC1.4 came out at 5.393 µM.
Next, `CCC1(C)C(=O)NC(C)(C)c2ccc(Cl)nc21` (stereo not shown) [compound 71]: 0.367 µM; `Cc1ccc2c(n1)C(C)(CC(F)F)C(=O)NC21COC1` (stereo not shown) [92a]: 1.318 µM; `CCC1(CC)C(=O)NC(C)(C)c2ccc(C)cc21` [compound 46]: 0.106 µM.
The result for `CC1(C)NC(=O)C(C)(Cn2cccn2)c2nc(C#N)ccc21` (stereo not shown) [134a] reads 0.626 µM.
The result for `CCC1(CCO)C(=O)NC2(COC2)c2ccc(C#N)cc21` (stereo not shown) [compound 165] reads 1.202 µM.
As to `CCC1(CC)C(=O)NC(C)(C)c2ccc(Cl)c(F)c21` [compound 141], the AC1.4 is under 0.077 µM.
For the compound `CC1(C)NC(=O)C(C)(C)c2cc(Br)ccc21` [compound 51], the AC1.4 is 0.093 µM.
Next, `CCC1(CC)C(=O)NC(C)(C(F)F)c2ccc(C#N)cc21` (stereo not shown) [compound 59]: 0.381 µM; `CCC1(CC)C(=O)NC(C)(C)c2c(C#N)cccc21` [compound 63]: 3.707 µM.
Next, `CCC1(CCO)C(=O)NC2(COC2)c2ccc(OC(F)F)nc21` (stereo not shown) [compound 105]: 4.313 µM.
The result for `CCC1(CC)C(=O)NC(C)(C)c2ccc(Cl)nc21` [compound 84] reads 0.401 µM; that for `CC1(C)NC(=O)C2(CCOCC2)c2cc(C#N)ccc21` [compound 62], over 39.200 µM; that for `CC1(C)NC(=O)C2(CCN(S(C)(=O)=O)CC2)c2cc(Cl)ccc21` [compound 155, 6-chloro-1,1-dimethyl-1′-(methylsulfonyl)-1,2-dihydro-3H-spiro[isoquinoline-4,4′-piperidin]-3-one], 8.340 µM.
Consider `CCC1(CCCO)C(=O)NC(C)(C)c2ccc(Br)cc21` (stereo not shown) [compound 54], for which the AC1.4 worked out at 0.596 µM.
For the compound `C=Cc1cnc2c(n1)C(CC)(CC)C(=O)NC21COC1` [compound 94], the AC1.4 is 8.994 µM.
